Results: article PMC7520468, “Salvia ceratophylla L. from South of Jordan: new insights on chemical composition and biological activities” (Natural Products and Bioprospecting, 2020)
Values after ≈ are worked out from the molar mass of the structure shown.

Tests used:
[1] = tested on: T. brucei brucei blood stream forms; design: method as in PMID 16557466; conditions: cited from earlier work
[2] = tested on: L. donovani axenic amastigotes; test: L. donovani axenic amastigote assay (Alamar Blue); type: cell-based; conditions: Leishmania donovani; first Amastigote column; 72 h, 37 °C; tested concentrations (µg/mL) 20–0.8 extracts, 10–0.4 pure compounds and pentamidine, 2.0–0.08 amphotericin B; NA = not active
Description: (§1) EO and extracts (A-D) at a stock concentration of 20 mg/mL were dilute to 4 mg/mL with DMSO. The obtained solutions (4 mg/mL) were four-fold diluted with incomplete RPMI medium to 1 mg/mL. Pure compounds at a stock concentration of 2 mg/mL in DMSO were diluted four-fold with incomplete RPMI medium to 0.5 mg/mL.
(§2) The extracts and pure compounds (highest concentrations 20 µg/mL for extracts and 10 µg/mL for pure compounds) were subject to different tests, namely Leishmania donovani promastigote assay, L. donovani axenic amastigote assay, L. donovani THP1 macrophage amastigote assay, Trypanosoma brucei trypamastigotes assay and THP1 toxicity assay. Alamar Blue assay was perform as previously described by other authors.
These assays have been adapted to 384-well micro-plate format. A 3–4 days old culture of Leishmania donovani promastigotes harvested in the exponential growth phase was diluted with RPMI medium to 1 × 10^6 cells/mL for promastigote assays. […]
Samples were added to the L. donovani promastigotes, L. donovani axenic amastigotes or T. brucei trypamastigotes cultures. […] The plates were incubated at 26 °C for 72 h (37 °C for axenic amastigotes and T. brucei trypamastigotes) and growth of cultured parasites was determined by the Alamar Blue assay [32 33].

[3] = tested on: L. donovani promastigotes; test: Leishmania donovani promastigote assay (Alamar Blue); type: cell-based; conditions: 72 h, 26 °C, tested concentrations (µg/mL) 20–0.8 extracts, 10–0.4 pure compounds and pentamidine, 2.0–0.08 amphotericin B, NA = not active
Description: as §1, §2
(§3) These assays have been adapted to 384-well micro-plate format. A 3–4 days old culture of Leishmania donovani promastigotes harvested in the exponential growth phase was diluted with RPMI medium to 1 × 10^6 cells/mL for promastigote assays. A 3–4 days old culture of Leishmania donovani axenic amastigotes was diluted with RPMI medium to 2 × 10^6 cells/mL for axenic amastigote assays. A 2 days old culture of Trypanosoma brucei harvested in the exponential phase was diluted with Iscove's Modified Dulbecco's Medium (IMDM) to 5 × 10^3 cells/mL for the antitrypanosomal assay.
(§4) Samples were added to the L. donovani promastigotes, L. donovani axenic amastigotes or T. brucei trypamastigotes cultures. The extracts were initially test at single concentrations of […] for primary screening. The active extracts and pure compounds were test at three or six concentrations ranging from 10 to 0.0032 µg/mL. The plates were incubated at 26 °C for 72 h (37 °C for axenic amastigotes and T. brucei trypamastigotes) and growth of cultured parasites was determined by the Alamar Blue assay [32 33].

[4] = tested on: T. brucei trypamastigotes; test: Trypanosoma brucei trypamastigotes assay (Alamar Blue); type: cell-based; conditions: 72 h, 37 °C, tested concentrations (µg/mL) 20–0.8 extracts and DFMO, 10–0.4 pure compounds, NA = not active
Description: as §1, §2, §3, §4

[5] = tested on: differentiated THP1 cells; test: THP1 toxicity assay (Alamar Blue); type: cell-based; conditions: Homo sapiens, THP-1; 48 h; tested concentrations (µg/mL) 20–0.8 extracts, 10–0.4 pure compounds and pentamidine, 2.0–0.08 amphotericin B; NA = not active
Description: Alamar Blue assay was perform as previously described by other authors. […] PMA was added to a final concentration of 25 ng/mL. A PMA treated culture was dispense in experimental culture plates and incubated overnight at 37 °C in a 5% CO2 incubator. The plates with differentiated THP1 cells were wash with serum-free medium. For THP1 toxicity assay, the diluted test samples (extracts or pure compounds) were add over differentiated THP1 cells and plates were incubated during 48 h at 37 °C in a 5% CO2 incubator. Cell growth was determined by the Alamar Blue assay.

NF-κB = test: Inhibition of NF-κB activity, luciferase reporter in SW 1353 cells; type: cell-based; conditions: Homo sapiens, SW1353; SW 1353, PMA 70 ng/mL, 8 h; NA = not active at tested concentration
Description: The inhibition activity of tested samples against NF-κB was evaluate as described. The SW 1353 human chondrosarcoma cell line was culture in a mixture of Dulbecco's Modified Eagle's Medium (DMEM) and Ham's F-12 Nutrient (DMEM/F12) supplemented with 10% FBS, 100 U/Ml penicillin and 100 µg/mL streptomycin. Cultured cells were washed in antibiotic and FBS-free DMEM/F12 medium and then re-suspended in FBS-free DMEM/F12 medium containing 2.5% FBS. NF-κB luciferase plasmid construct was added to the cell suspension in a concentration of 50 µg/mL and incubated for 5 min at 25 °C. The cells were transfected by electroporation at 160 V and one 70 ms pulse using BTX disposable cuvettes (model 640 in a BTX Electro Square Porator T 820—BTX I, San Diego, CA, USA), Transfected cells were plate in 96-well plates at a density of 1.25 × 10^5cells per well in 200 µL of DMEM/F12 containing 10% FBS and antibiotics. After incubation for 24 h, the cells were treated with test samples for 30 min and then induced with PMA (70 ng/mL) for 8 h. The inhibition of NF-κB activity by EO, other extracts, and pure compounds was calculated in comparison to vehicle control. The IC50 values were obtain from the dose curves. Parthenolide was use as positive control.

[6] = tested on: human HepG2 hepatoma cells; test: Inhibition of cellular oxidative stress assay (ABAP, DCFH-DA); type: cell-based
Description: The cellular antioxidant activity of S. ceratophylla EO and other extracts was measured in human HepG2 hepatoma cells This assay determines the ability of test samples to prevent intracellular generation of peroxyl radicals in response to 2,2- azobis (2-amidinopropane) dihydrochloride (ABAP, Sigma-Aldrich, St Louis, MO, USA).
HepG2 cells were culture in Dulbecco's Modified Eagle Medium (DMEM) supplemented with 10% fetal bovine serum (FBS), 50 units/mL penicillin and 50 µg/mL streptomycin. Cells were seed in 96-well plates (60,000 cells/well) and incubated for 24 h. The tested samples were diluted in serum free medium containing 25 µM 2^′,7′, dichoroflouresceine diacetate (DCFH-DA, Invitrogen, Carlsbad, CA, USA). The cells were wash with PBS and treated with test samples during 1 h. The medium containing tested samples was removed, ABAP (600 µM) was added and the plate was immediately placed on a Spectra Max plate reader for kinetic reading every 5 min during 1 h (37 °C, emission at 538 nm and excitation at 485 nm). Quercetin (Sigma-Aldrich) was use as positive control. To calculate the percentage of decrease in oxidative stress, the Area Under the Curve (AUC) of fluorescence versus time was used. Decrease in oxidative stress%=AUC control^100-[AUC tested sample×100]

[7] = tested on: transcription factor Sp-1; test: Sp-1 inhibition; type: cell-based; conditions: NA = not active at tested concentration
[8] = tested on: NO production in mouse macrophage cells (RAW 264.7); test: Nitric oxide (NO) measurement, LPS-stimulated macrophages, Griess reagent; type: cell-based; conditions: RAW264.7, RAW 264.7, LPS 5 µg/mL, 24 h, NA = not active at tested concentration, read-out: NO inhibition IC50
Description: The NO inhibition by EO, extracts of S. ceratophylla and pure compounds, was assess by the following methodology. Briefly, mouse macrophage cells (RAW 264.7) were culture in phenol red free RPMI medium with 10% bovine calf serum and 100 U/mL penicillin and 100 µg/mL streptomycin.
Cells were seed in 96-well plates (50,000 cells/well) and incubated during 24 h. The tested samples were dilute in serum free medium, incubated during 30 min, then lipopolysaccharide (LPS, 5 µg/mL) was added and cells were incubated for further 24 h. The level of nitrite in the cell supernatant was measure by using Griess reagent. The inhibition of nitrite production by the tested samples was calculate in comparison to the vehicle control. Parthenolide (Sigma-Aldrich) was use as positive control. IC50 values were obtain from dose curves.

[9] = tested on: ovarian carcinoma (SK-OV-3); test: Cytotoxic activity, Neutral Red assay, SK-OV-3; type: cell-based; conditions: Homo sapiens, 48 h, NA = not active at 10 µg/mL for pure compound, at 100 µg/mL for extracts
Description: (§5) All cell lines used in this study were purchase from American Type Culture Collection (ATCC, Rockville, MD). The cytotoxic activity of the EO, extracts isolated from S. ceratophylla and pure compounds was determined in vitro against various human cancer cells: skin malignant melanoma (SK-MEL), human KB carcinoma (KB), breast ductal carcinoma (BT-549), ovarian carcinoma (SK-OV-3), and in two non-cancerous mammalian kidney cell lines (LLC-PK1 and VERO). Cells were seed at a density of 25,000 cells/well and incubated during 24 h. The tested EO, extracts and pure compounds were added separately at studied concentrations and cells were re-incubated during 48 h. After incubation time, the viability of cells was assessed by using Neutral Red Dye as described. DMSO was use as negative control and doxorubicin as positive control.

[10] = tested on: breast ductal carcinoma (BT-549); test: Cytotoxic activity, Neutral Red assay, BT-549; type: cell-based; conditions: Homo sapiens, 48 h, NA = not active at 10 µg/mL for pure compound, at 100 µg/mL for extracts
Description: as §5

[11] = Cytotoxic activity, Neutral Red assay, LLC-PK1; type: cell-based; conditions: pig, LLC-PK1 kidney epithelial cells (non-cancerous), NA = not active at 10 µg/mL for pure compound, at 100 µg/mL for extracts
Description: as §5

human KB carcinoma (KB) = test: Cytotoxic activity, Neutral Red assay, KB; type: cell-based; conditions: 48 h, NA = not active at 10 µg/mL for pure compound, at 100 µg/mL for extracts
Description: as §5

[12] = tested on: skin malignant melanoma (SK-MEL); test: Cytotoxic activity, Neutral Red assay, SK-MEL; type: cell-based; conditions: Homo sapiens; 48 h; NA = not active at 10 µg/mL for pure compound, at 100 µg/mL for extracts
Description: as §5

[13] = Cytotoxic activity, Neutral Red assay, Vero; type: cell-based; conditions: African green monkey, Vero kidney fibroblast cells (non-cancerous), NA = not active at 10 µg/mL for pure compound, at 100 µg/mL for extracts
Description: as §5

[14] = tested on: L. amazonensis promastigotes; design: method as in PMID 12760864; conditions: cited from earlier work
[15] = tested on: several cancer cell lines; design: method as in earlier work; conditions: up to a concentration of 200 μg/mL; cited from earlier work
[16] = tested on: carrageenin-induced hind paw edema; design: method as in PMID 23334570; conditions: dose of 25 mg/kg, p = 0.03; cited from earlier work
[17] = compounds of Strychnos spinosa EO

C=CC(C)(O)CCC=C(C)CCC=C(C)C (mixture of isomers) [nerolidol]
IC50 towards Trypanosoma [1, 17]: 1.7 µg/mL
selectivity index (SI) towards Trypanosoma [1, 17]: 35.7

C[C@@H]1[C@H](O)[C@@H](C)/C=C/C=C/C=C/C=C/C=C/C=C/C=C/[C@H](O[C@@H]2O[C@H](C)[C@@H](O)[C@H](N)[C@@H]2O)C[C@@H]2O[C@](O)(C[C@@H](O)C[C@@H](O)[C@H](O)CC[C@@H](O)C[C@@H](O)CC(=O)O[C@H]1C)C[C@H](O)[C@H]2C(=O)O [Amphotericin B]
IC50 [2]: 0.181 µg/mL (≈ 0.196 µM)
IC50 [3]: 0.14 µg/mL (≈ 0.152 µM)
IC90 [3]: 0.324 µg/mL (≈ 0.351 µM)

NCCC[C@](N)(C(=O)O)C(F)F [α-difluoromethylornithine]
T. brucei IC50 [4]: 4.792 µg/mL
T. brucei IC90 [4]: 7.760 µg/mL

N=C(N)c1ccc(OCCCCCOc2ccc(C(=N)N)cc2)cc1 [Pentamidine]
IC50 [2]: 3.8 µg/mL (≈ 11.2 µM)
IC50 [3]: 1.02 µg/mL (≈ 3.01 µM)
IC90 [3]: 9.28 µg/mL (≈ 27.3 µM)
IC90 [5]: 1.74 µg/mL (≈ 5.1 µM)

CC1=CC[C@@H](C(C)(C)O)CC1 [α-Terpineol]
activity against T. brucei brucei blood stream forms [1]: slightly active
IC50 (NF-κB): 100 µg/mL (≈ 648 µM)
IC50 ([4]; Trypanosoma brucei): 6.04 µg/mL (≈ 39.2 µM)
IC90 ([4]; Trypanosoma brucei): 8.22 µg/mL (≈ 53.3 µM)

C=C1CC/C=C(\C)CC[C@@H]2[C@@H]1CC2(C)C [Caryophyllene, (-)trans-Caryophyllene]
IC50 (NF-κB): 45 µg/mL (≈ 220 µM)
% decrease in oxidative stress ([6]; 250 µg/mL, pure compounds, NA = not active at tested concentration): 31%
% decrease in oxidative stress ([6]; 500 µg/mL, pure compounds, NA = not active at tested concentration): 35%
IC50 [7]: 48 µg/mL (≈ 235 µM)

C=C1C(=O)O[C@H]2[C@H]1CC/C(C)=C/CC[C@@]1(C)O[C@@H]21 [Parthenolide]
IC50 [8]: 0.48 µg/mL (≈ 1.93 µM)
IC50 (NF-κB): 0.33 µg/mL (≈ 1.33 µM)

COc1cccc2c1C(=O)c1c(O)c3c(c(O)c1C2=O)C[C@@](O)(C(=O)CO)C[C@@H]3O[C@H]1C[C@H](N)[C@H](O)[C@H](C)O1 [Doxorubicin]
IC50 [9]: 2 µg/mL (≈ 3.68 µM)
IC50 [10]: 0.85 µg/mL (≈ 1.56 µM)
IC50 at 48 h [11]: 1.2 µg/mL (≈ 2.21 µM)
IC50 (human KB carcinoma (KB)): 1.4 µg/mL (≈ 2.58 µM)
IC50 [12]: 0.8 µg/mL (≈ 1.47 µM)
IC50 at 48 h [13]: > 5 µg/mL

C=CC(C)(O)CCC=C(C)C (stereo not drawn) [Linalool]
MIC, viability of L. amazonensis promastigotes [14]: 85.0 pg/mL
cytotoxic activity against several cancer cell lines [15]: did not exhibit cytotoxic activity
IC50 towards Trypanosoma [1, 17]: 2.5 µg/mL (≈ 16.2 µM)
IC50 [8]: 18 µg/mL (≈ 117 µM)
inhibition of carrageenin-induced hind paw edema [16]: 55%

O=c1c(O)c(-c2ccc(O)c(O)c2)oc2cc(O)cc(O)c12 [Quercetin]
% decrease in oxidative stress ([6]; 25 µM, positive control): 75%
